molecular target: T1, recombinant human mPGES-1 (Homo sapiens, UniProt O14684); assay: mPGES-1 inhibition test (microsomes, PGH2 substrate, HTRF detection of PGE2); assay type: biochemical; conditions: inhibition of mPGES-1 at 10 μM
T1 construct: made in house; host or cells: Rosetta E. coli (microsomal/membrane fraction)
T1 sequence (O14684 1-152): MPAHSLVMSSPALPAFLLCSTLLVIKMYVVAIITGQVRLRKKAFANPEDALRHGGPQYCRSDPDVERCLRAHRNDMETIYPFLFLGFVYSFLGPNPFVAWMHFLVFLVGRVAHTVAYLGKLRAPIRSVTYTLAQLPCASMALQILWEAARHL
Method in brief: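 E. coli microsomal enzyme, 0.1 M KPi pH 7.4 + 2.5 mM GSH; cpd (DMSO) 25 min RT; PGH2 1 min; acidic FeCl2 stop. Dilute 750-fold, HTRF (d2/Eu-cryptate anti-PGE2, overnight 4 °C), 665/620 ratio vs PGE2 standard curve.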

Q: `Cn1c(Nc2c(Cl)cccc2Cl)nc2cc(C(=O)NCc3ccc(C(F)(F)F)cn3)ccc21` [Example 246, 2-(2,6-Dichloro-phenylamino)-1-methyl-1H-benzimidazole-5-carboxylic acid (5-trifluoromethyl-pyridin-2-ylmethyl)-amide] was tested. Which inhibition at 10 µM did it give?
A: 100%

Q: With `Cn1c(Nc2c(Cl)cccc2Cl)nc2cc(C(=O)NCc3cccc(C(F)(F)F)n3)ccc21` [Example 247, 2-(2,6-Dichloro-phenylamino)-1-methyl-1H-benzimidazole-5-carboxylic acid (6-trifluoromethyl-pyridin-2-ylmethyl)-amide] as the molecule, how does the inhibition at 10 µM read?
A: 92%

Q: `Cn1c(Nc2c(Cl)cccc2Cl)nc2cc(C(=O)Nc3cccc(S(C)(=O)=O)c3)ccc21` [Example 248, 2-(2,6-Dichloro-phenylamino)-1-methyl-1H-benzimidazole-5-carboxylic acid (3-methanesulfonyl-phenyl)-amide] was tested. Which inhibition at 10 µM did it give?
A: 73%

Q: For `Cn1c(Nc2c(Cl)cccc2Cl)nc2cc(C(=O)NC3CCC(F)(F)CC3)ccc21` [Example 249, 2-(2,6-Dichloro-phenylamino)-1-methyl-1H-benzimidazole-5-carboxylic acid (4,4-difluoro-cyclohexyl)-amide], which inhibition at 10 µM is on record?
A: 96%

Q: With `Cn1c(Nc2c(Cl)cccc2Cl)nc2cc(C(=O)Nc3ccc(S(C)(=O)=O)cc3)ccc21` [Example 250, 2-(2,6-Dichloro-phenylamino)-1-methyl-1H-benzimidazole-5-carboxylic acid (4-methanesulfonyl-phenyl)-amide] as the molecule, how does the inhibition at 10 µM read?
A: 73%

Q: With `Cn1c(Nc2c(Cl)cccc2Cl)nc2cc(C(=O)NCC3CCCOC3)ccc21` (centres unmarked) [Example 251, 2-(2,6-Dichloro-phenylamino)-1-methyl-1H-benzimidazole-5-carboxylic acid (tetrahydro-pyran-3-ylmethyl)-amide] as the molecule, how does the inhibition at 10 µM read?
A: 71%

Q: With `Cn1c(Nc2c(Cl)cccc2Cl)nc2cc(C(=O)NC3CCOCC3)ccc21` [Example 252, 2-(2,6-Dichloro-phenylamino)-1-methyl-1H-benzimidazole-5-carboxylic acid (tetrahydro-pyran-4-yl)-amide] as the molecule, how does the inhibition at 10 µM read?
A: 68%

Q: For `Cn1c(Nc2c(Cl)cccc2Cl)nc2cc(C(=O)NC3(C)CCCCC3)ccc21` [Example 253, 2-(2,6-Dichloro-phenylamino)-1-methyl-1H-benzimidazole-5-carboxylic acid (1-methyl-cyclohexyl)-amide], which inhibition at 10 µM is on record?
A: 100%

Q: With `Cn1c(Nc2c(Cl)cccc2Cl)nc2cc(C(=O)NC3CCCCC3C(F)(F)F)ccc21` (centres unmarked) [Example 254, 2-(2,6-Dichloro-phenylamino)-1-methyl-1H-benzimidazole-5-carboxylic acid (2-trifluoromethyl-cyclohexyl)-amide] as the molecule, how does the inhibition at 10 µM read?
A: 100%

Q: For `Cn1c(Nc2c(Cl)cccc2Cl)nc2cc(C(=O)NC3CCCC(C(F)(F)F)C3)ccc21` (centres unmarked) [Example 255, 2-(2,6-Dichloro-phenylamino)-1-methyl-1H-benzimidazole-5-carboxylic acid (3-trifluoromethyl-cyclohexyl)-amide], which inhibition at 10 µM is on record?
A: 100%

Q: With `Cn1c(Nc2c(Cl)cccc2Cl)nc2cc(C(=O)NC3CCC(C(F)(F)F)CC3)ccc21` (centres unmarked) [Example 256, 2-(2,6-Dichloro-phenylamino)-1-methyl-1H-benzimidazole-5-carboxylic acid (4-trifluoromethyl-cyclohexyl)-amide] as the molecule, how does the inhibition at 10 µM read?
A: 100%

Q: How did the inhibition at 10 µM turn out when `Cn1c(Nc2c(Cl)cccc2Cl)nc2cc(C(=O)NC3(C#N)CCCCC3)ccc21` [Example 257, 2-(2,6-Dichloro-phenylamino)-1-methyl-1H-benzimidazole-5-carboxylic acid (1-cyano-cyclohexyl)-amide] was run?
A: 100%

Q: How did the inhibition at 10 µM turn out when `Cn1c(Nc2c(Cl)cccc2Cl)nc2cc(C(=O)NCCc3ccccn3)ccc21` [Example 258, 2-(2,6-Dichloro-phenylamino)-1-methyl-1H-benzimidazole-5-carboxylic acid (2-pyridin-2-yl-ethyl)-amide] was run?
A: 83%

Q: Which inhibition at 10 µM does the source give for `Cn1c(Nc2c(Cl)cccc2Cl)nc2cc(C(=O)NCCc3cccnc3)ccc21` [Example 259, 2-(2,6-Dichloro-phenylamino)-1-methyl-1H-benzimidazole-5-carboxylic acid (2-pyridin-3-yl-ethyl)-amide] here?
A: 89%
